Experimental data reported in patent publication US5525626A (priority 1989, dated 1996).
“Also recorded” adds a separate entry of the source.

Tests used:
LNCap cells [1] = experiment: growth inhibition of prostatic carcinoma cells (Table 1); type: cell-based, human; settings: 250 μmol/ml, after 10 days
MCF 7 cells = experiment: growth inhibition of breast cancer cells (Table 1, Example 2); type: cell-based, human
Excerpt: The MCF 7 cell line from breast cancer was cultivated in DMEM-S 10, enriched with 10% FCS, for 10 days in the usual way.

EJ cells = experiment: growth inhibition of bladder carcinoma cells (Table 1); type: cell-based, human; settings: 200 μmol/ml, after 10 days
TP 242 MG cells = experiment: growth curve, glioblastoma cells; type: cell-based, human; settings: for Cell count: 25 μM/ml
Description: (§1) The neuroblastoma cell line and the three glioblastoma cell lines were cultivated in Ham's F10 medium enriched with 10% fetal calf serum (FCS) and the usual quantity of penicillin, streptomycin (Pen/Strep) and glutamine. The epidermoidal cell line was cultivated in modified Eagle's Medium (MEM), likewise enriched with 10% (FCS) and the usual quantity of glutamine and Pen/Strep.
(§2) In each case 5×10^4 cells were plated out in T25 bottles, the untreated cells being incubated in analogous conditions as control. The cell count was microscopically determined after 3, 5, 7, 10 and 12 days.

TP 336 MG cells = experiment: growth curve, glioblastoma cells; type: cell-based, human; settings: for Cell count: 10 μM/ml
Description: as §1, §2

U 178 MG cells = experiment: growth curve, glioblastoma cells; type: cell-based, human; settings: for Cell count: 25 μM/ml
Description: as §1, §2

TP 410 N cells = experiment: growth curve, neuroblastoma cells; type: cell-based, human; settings: for Cell count: 25 μM/ml
Description: as §1, §2

[2] = tested on: U 178 MG, TP 410 N, TP 242 MG, TP 336 MG and A 431 cells; settings: 37.5 μM/ml, 48 hours
Description: as §1
Untreated cells served as a control. Subsequently, the cells were incubated for 8 hours with ^3 H-thymidine. The radioactivity absorbed by the cells was measured in the usual way.

DU-145 cells = experiment: cell growth, combination with TNF; type: cell-based; settings: 7-OH-1,2-BP 500 μM/ml; TNF 1 nM/ml; combination 500 μM/1 nM; 4 days; 3×10^4 cells/well; control 51.86 + 3.06
Description: Various cell lines (DU-145, PC-3 and LNCaP) from prostate carcinomas were used.
Initial cell count: 3×10^4 cells/well; exposure period: DU-145, PC-3: 4 days; LNCaP: 6 days

LNCap cells [3] = experiment: cell growth in combination with testosterone; type: cell-based, human
[4] = tolerance study in patients with malignant tumors; type: in vivo, human
Excerpt: Over 8 consecutive weeks the patients were examined once a week for signs of systemic toxicity and organic dysfunctions.

[5] = tested on: Onco Mouse mammary glands-neoplasms; experiment: chemoprevention in transgenic mice (mammary glands-neoplasms); type: in vivo; settings: 200 μM/ml in drinking water
Description: The chemopreventive properties of 7-OH-1,2-BP were tested on transgenic mice of the Onco Mouse™ type (mammary glands-neoplasms): […]

DUKX cells = experiment: growth inhibition of c-myc-expressing tumor cells; type: cell-based, Chinese hamsters
Excerpt: a) DUKX cells (ovarian carcinoma cells from Chinese hamsters) which over-express "c-myc" products, were cultivated according to standard conditions, two comparative groups being grown.

PDFG-A gene = experiment: transcription (mRNA level); type: cell-based; settings: Seliger et al., unpublished results; FIG. 8
Excerpt: (§3) In connection with the neoplastic transformation and increased proliferation rate of glioblastoma cells, two autocrinic loops, the EGF and the PDGF system, are discussed.

PDFG-B gene = experiment: transcription (mRNA level); type: cell-based; settings: Seliger et al., unpublished results; FIG. 8
Excerpt: as §3

[6] = tested on: U 178 MG, TP 410 N, TP 242 MG, TP 336 MG and A 431 cells; experiment: growth curves of five tumor cell lines, comparison with coumarin; type: cell-based, human; settings: corresponding concentrations, up to 12 days
Description: as §1, §2

[7] = Homo sapiens, 288 h, 25 μM/ml (Table 2), read-out: % growth inhibition compared with control after 12 days

In the case of `O=c1ccc2ccc(O)cc2o1` [7-OH-1,2-BP, 7-hydroxy-1,2-benzopyrone], the “% Growth inhibition compared with control” value (from here on “% Growth inhibition”) (LNCap cells [1]) is reported as 66%, the “% Growth inhibition” value (MCF 7 cells; 200 μmol/ml, after 10 days) is reported as 64% and the “cytostatic effect on breast cancer cells” value (MCF 7 cells; Example 2, FIG. 1) is reported as “clearly show the cytostatic effect”. For the same compound, the “% Growth inhibition” value (EJ cells) was 26%, the Cell count (TP 242 MG cells; after 3 days, control 10) was 4 × 10^4 and the Cell count (TP 242 MG cells; after 5 days, control 15) was 6 × 10^4. For the same compound, the Cell count (TP 242 MG cells; after 7 days, control 23) was 8 × 10^4, the Cell count (TP 242 MG cells; after 10 days, control 49) was 10 × 10^4 and the Cell count (TP 242 MG cells; after 12 days, control 57) was 12 × 10^4. The inhibition at 25 µM (TP 242 MG cells; [7]) was 79%, the Cell count (TP 336 MG cells; after 3 days, control 13) was 7 × 10^4 and the Cell count (TP 336 MG cells; after 5 days, control 25) was 11 × 10^4. For the same compound, the Cell count (TP 336 MG cells; after 7 days, control 39) was 22 × 10^4, the Cell count (TP 336 MG cells; after 10 days, control 34) was 18 × 10^4 and the Cell count (TP 336 MG cells; after 12 days, control 45) was 18 × 10^4. The inhibition at 10 µM (TP 336 MG cells; Homo sapiens, 288 h, 10 μM/ml (Table 2), read-out: % growth inhibition compared with control after 12 days) was 60%, the Cell count (U 178 MG cells; after 3 days, control 23) was 15 × 10^4 and the Cell count (U 178 MG cells; after 5 days, control 57) was 13 × 10^4. The Cell count (U 178 MG cells; after 7 days, control 84) was 26 × 10^4, the inhibition at 25 µM (U 178 MG cells; [7]) was 74% and the Cell count (TP 410 N cells; after 3 days, control 25) was 8 × 10^4. The Cell count (TP 410 N cells; after 5 days, control 45) was 20 × 10^4, the Cell count (TP 410 N cells; after 7 days, control 71) was 36 × 10^4 and the inhibition at 25 µM (TP 410 N cells; Homo sapiens, Neuroblastoma cell, 288 h, 25 μM/ml (Table 2), read-out: % growth inhibition compared with control after 12 days) was 62%. The “cytotoxic / cytostatic effect” value [2] was “not cytotoxic for any of the cells, but cytostatic”, the Cell growth (DU-145 cells) was 38.30 + 2.92 and the “inhibition of cell growth” value (LNCap cells [3]; 500 μM 7-OH-1,2-BP/ml medium combined with 20 nM testosterone) was “virtually complete inhibition of cell growth”. The “increase of growth inhibition by additional hormone therapy” value (LNCap cells [3]; for example testosterone) was “can be increased by additional hormone therapy”, the side-effects ([4]; 50 mg/day increased up to 2000 mg/day, 8 weeks, 60 patients) was “no side-effects at all had occurred” and the toxic side-effects ([4]; long-term administration, 7000 mg/day) was “Toxic side-effects were not observed”. For the same compound, the “Tumor incidence (number of mice)” value ([5]; without substance 9/28) was 3/38, the Tumor incidence % ([5]; without substance 32) was 8% and the “inhibition of cell growth” value (DUKX cells; 100 μg/ml, 24, 48 and 72 hours, FIG. 10) was “dramatic inhibition of cell growth; also recorded: inhibit the cell growth of tumor cells with oncogene-overexpression”. For the same compound, the “cell growth after removal of substance” value (DUKX cells; 24 hours, then 48 hours in 7-OH-1,2-BP-free medium, FIG. 11b1) was “considerable cell growth”, the “inhibition of cell growth, second cultivation in presence of substance” value (DUKX cells; 24 hours, trypsin, then 48 hours in 7-OH-1,2-BP-containing medium, FIG. 11b2) was “cell growth was virtually completely inhibited” and the “transcription of gene coding for PDFG-A (mRNA level)” value (PDFG-A gene) was “inhibited”. The “transcription of gene coding for PDFG-B (mRNA level)” value (PDFG-B gene) was “inhibited” and the “growth-inhibiting activity (growth curve) versus control” value [6] was “developed growth-inhibiting activity”.
